Literature values in patent US20070026383A1, “Methods and compositions for extracting membrane proteins” (Quintessence Biosciences, Inc., priority 2005, published 2007).

Legend:
[1] = not given; remark: listed apart in the source

For `CCc1c2c(nc3ccc(OC(=O)N4CCC(NCCCCC(=O)O)CC4)cc13)-c1cc3c(c(=O)n1C2)COC(=O)C3(O)CC` (centres unmarked) [APC, 7-ethyl-10[4-N-(5-aminopentanoic acid)-1piperidino]carbonyloxycamptothecin], the “fold weaker antitumor activity compared with SN-38” value (relative to SN-38) is given as 500 fold and the “antitumor activity in vitro” value [1] is given as “weak antitumor activity”.

For `CCc1c2c(nc3ccc(OC(=O)N4CCC(N)CC4)cc13)-c1cc3c(c(=O)n1C2)COC(=O)[C@]3(O)CC` [NPC, 7-ethyl-10-(4-amino-1-piperidino)carbonyloxycamptothecin], the “antitumor activity in vitro” value [1] is given as “weak antitumor activity”.

In the case of `CCc1c2c(nc3ccc(O)cc13)-c1cc3c(c(=O)n1C2)COC(=O)[C@]3(O)CC` [SN-38, 7-ethyl-10-hydroxycamptothecin], the “fold higher antitumor activity than Irinotecan” value (relative to Irinotecan) is given as 100-1,000 fold.

For `CCc1c2c(nc3ccc(O[C@@H]4O[C@H](C(=O)O)[C@@H](O)[C@H](O)[C@H]4O)cc13)-c1cc3c(c(=O)n1C2)COC(=O)[C@]3(O)CC` [SN-38G, 10-O-glucuronyl-SN-38], the activity of metabolite (glucuronide of SN-38) is given as “inactive”.
